27 compounds from ChEMBL document CHEMBL2417495, “N-Methylanilide and N-methylbenzamide derivatives as phosphodiesterase 10A (PDE10A) inhibitors” (Bioorg Med Chem, 2013) can be followed below.

The target in series [1] is T1, cAMP and cAMP-inhibited cGMP 3',5'-cyclic phosphodiesterase 10A (Homo sapiens, UniProt Q9Y233). The experiment in a line: Inhibition of PDE10A (unknown origin) at 2 uM.
The target of series [2] is T1, cAMP and cAMP-inhibited cGMP 3',5'-cyclic phosphodiesterase 10A. Briefly: Inhibition of PDE10A (unknown origin).
In series [3] the target is cGMP-dependent 3',5'-cyclic phosphodiesterase (Homo sapiens) (UniProt O00408). The experiment in a line: Inhibition of PDE2 (unknown origin) at 2 uM.
Sequence of cGMP-dependent 3',5'-cyclic phosphodiesterase (Homo sapiens) (O00408 whole entry): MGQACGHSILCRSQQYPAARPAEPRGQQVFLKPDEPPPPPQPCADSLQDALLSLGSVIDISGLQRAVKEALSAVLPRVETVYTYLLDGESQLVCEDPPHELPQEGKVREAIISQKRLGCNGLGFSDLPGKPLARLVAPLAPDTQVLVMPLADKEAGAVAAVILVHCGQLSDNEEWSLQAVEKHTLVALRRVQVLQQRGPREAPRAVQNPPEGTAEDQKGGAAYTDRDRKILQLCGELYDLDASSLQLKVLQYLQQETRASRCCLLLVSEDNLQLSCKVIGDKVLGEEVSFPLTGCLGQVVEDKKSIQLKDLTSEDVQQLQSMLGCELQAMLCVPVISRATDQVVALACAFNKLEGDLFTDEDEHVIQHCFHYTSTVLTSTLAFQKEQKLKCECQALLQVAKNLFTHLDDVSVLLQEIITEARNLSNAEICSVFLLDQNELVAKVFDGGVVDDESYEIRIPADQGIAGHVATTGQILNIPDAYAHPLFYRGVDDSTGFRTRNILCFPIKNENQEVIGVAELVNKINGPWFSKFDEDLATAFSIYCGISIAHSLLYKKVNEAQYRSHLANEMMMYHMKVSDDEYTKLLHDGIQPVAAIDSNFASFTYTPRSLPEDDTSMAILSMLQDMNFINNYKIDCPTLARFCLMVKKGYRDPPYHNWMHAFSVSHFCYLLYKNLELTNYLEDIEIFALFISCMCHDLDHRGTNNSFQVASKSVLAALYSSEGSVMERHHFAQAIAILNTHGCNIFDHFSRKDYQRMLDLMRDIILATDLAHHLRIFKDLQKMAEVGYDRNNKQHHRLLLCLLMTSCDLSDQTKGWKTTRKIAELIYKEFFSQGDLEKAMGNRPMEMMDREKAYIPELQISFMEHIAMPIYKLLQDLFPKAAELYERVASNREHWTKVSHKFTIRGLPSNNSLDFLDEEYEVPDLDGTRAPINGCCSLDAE
The target of series [4] is cGMP-inhibited 3',5'-cyclic phosphodiesterase 3A (Homo sapiens) (UniProt Q14432). The experiment in a line: Inhibition of PDE3A (unknown origin) at 2 uM.
Sequence of cGMP-inhibited 3',5'-cyclic phosphodiesterase 3A (Homo sapiens) (Q14432 whole entry): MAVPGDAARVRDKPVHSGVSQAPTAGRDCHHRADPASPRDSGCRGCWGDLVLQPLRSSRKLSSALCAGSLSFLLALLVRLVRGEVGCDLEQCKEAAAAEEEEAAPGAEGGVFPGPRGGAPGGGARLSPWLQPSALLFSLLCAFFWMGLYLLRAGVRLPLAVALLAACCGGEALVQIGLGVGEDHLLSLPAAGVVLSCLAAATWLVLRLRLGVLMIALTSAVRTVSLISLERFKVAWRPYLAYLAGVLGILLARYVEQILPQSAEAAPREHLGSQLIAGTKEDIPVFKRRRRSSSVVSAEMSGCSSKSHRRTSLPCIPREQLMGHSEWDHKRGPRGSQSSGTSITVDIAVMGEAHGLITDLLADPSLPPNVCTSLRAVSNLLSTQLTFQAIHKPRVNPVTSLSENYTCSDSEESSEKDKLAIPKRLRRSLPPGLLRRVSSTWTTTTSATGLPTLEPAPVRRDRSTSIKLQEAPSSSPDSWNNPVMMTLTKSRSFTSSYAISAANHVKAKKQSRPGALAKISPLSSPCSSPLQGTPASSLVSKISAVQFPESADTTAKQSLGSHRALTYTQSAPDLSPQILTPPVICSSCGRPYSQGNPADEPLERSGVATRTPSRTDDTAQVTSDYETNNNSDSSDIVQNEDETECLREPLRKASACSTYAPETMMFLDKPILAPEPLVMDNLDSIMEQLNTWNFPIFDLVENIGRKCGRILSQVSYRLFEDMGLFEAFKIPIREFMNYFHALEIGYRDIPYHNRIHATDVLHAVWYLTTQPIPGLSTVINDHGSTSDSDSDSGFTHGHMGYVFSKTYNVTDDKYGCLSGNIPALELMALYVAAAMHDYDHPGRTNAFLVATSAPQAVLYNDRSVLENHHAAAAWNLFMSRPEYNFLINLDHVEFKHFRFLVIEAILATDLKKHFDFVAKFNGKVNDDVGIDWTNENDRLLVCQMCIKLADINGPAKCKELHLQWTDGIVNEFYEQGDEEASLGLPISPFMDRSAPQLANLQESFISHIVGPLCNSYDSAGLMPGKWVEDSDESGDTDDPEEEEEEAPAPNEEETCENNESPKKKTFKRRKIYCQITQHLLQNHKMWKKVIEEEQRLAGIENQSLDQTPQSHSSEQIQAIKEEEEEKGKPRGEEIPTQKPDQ
Series [5] concerns the target High affinity cGMP-specific 3',5'-cyclic phosphodiesterase 9A (Homo sapiens) (UniProt O76083). The experiment in a line: Inhibition of PDE9A (unknown origin) at 2 uM.
Series [6] deals with 3',5'-cyclic-AMP phosphodiesterase 4D (Homo sapiens) (UniProt Q08499). Briefly: Inhibition of PDE4D (unknown origin) at 2 uM.
Sequence of 3',5'-cyclic-AMP phosphodiesterase 4D (Homo sapiens) (Q08499 whole entry): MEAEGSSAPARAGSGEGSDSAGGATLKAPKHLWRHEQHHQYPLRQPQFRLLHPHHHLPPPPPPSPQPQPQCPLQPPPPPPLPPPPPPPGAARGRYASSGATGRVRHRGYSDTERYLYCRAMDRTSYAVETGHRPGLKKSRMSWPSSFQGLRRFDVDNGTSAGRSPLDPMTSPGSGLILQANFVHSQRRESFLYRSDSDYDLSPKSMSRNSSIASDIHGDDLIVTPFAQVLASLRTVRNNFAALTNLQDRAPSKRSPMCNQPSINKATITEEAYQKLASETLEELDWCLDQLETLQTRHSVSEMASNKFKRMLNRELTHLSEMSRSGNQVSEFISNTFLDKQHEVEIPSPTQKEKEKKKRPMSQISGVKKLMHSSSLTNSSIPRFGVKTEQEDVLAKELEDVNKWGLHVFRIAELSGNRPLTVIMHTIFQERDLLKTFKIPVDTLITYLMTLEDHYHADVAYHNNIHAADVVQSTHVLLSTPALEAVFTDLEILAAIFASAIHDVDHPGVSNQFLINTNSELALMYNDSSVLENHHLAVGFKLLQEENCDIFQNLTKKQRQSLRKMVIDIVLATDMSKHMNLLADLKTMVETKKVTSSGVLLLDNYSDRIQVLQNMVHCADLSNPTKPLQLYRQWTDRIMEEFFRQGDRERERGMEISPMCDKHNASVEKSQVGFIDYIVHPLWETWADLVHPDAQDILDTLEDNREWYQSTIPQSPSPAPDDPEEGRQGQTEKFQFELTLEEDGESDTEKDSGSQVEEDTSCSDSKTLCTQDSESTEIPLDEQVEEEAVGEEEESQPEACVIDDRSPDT
The test system of a further series is Liver microsomes. The experiment in a line: Intrinsic clearance in human liver microsomes. In kind it is ADME, Microsome. (Liver microsomes are a subcellular fraction often used to study metabolism.)
The species named for another series is Homo sapiens. Briefly: Selectivity ratio of IC50 for PDE (unknown origin) to IC50 for PDE10A (unknown origin).
A further series is filed under the species Rattus norvegicus. The experiment in a line: Antipsychotic activity in rat assessed as inhibition of amphetamine-stimulated locomotor activity. In kind it is functional.
Series [7] is described as follows: Ratio of drug uptake in brain to plasma in rat. In kind it is ADME. The settings on record: read-out: BPR.
In series [8] the target is Voltage-gated inwardly rectifying potassium channel KCNH2 (Homo sapiens, UniProt Q12809). Briefly: Inhibition of human ERG.

Sequence of High affinity cGMP-specific 3',5'-cyclic phosphodiesterase 9A (Homo sapiens) (O76083 whole entry): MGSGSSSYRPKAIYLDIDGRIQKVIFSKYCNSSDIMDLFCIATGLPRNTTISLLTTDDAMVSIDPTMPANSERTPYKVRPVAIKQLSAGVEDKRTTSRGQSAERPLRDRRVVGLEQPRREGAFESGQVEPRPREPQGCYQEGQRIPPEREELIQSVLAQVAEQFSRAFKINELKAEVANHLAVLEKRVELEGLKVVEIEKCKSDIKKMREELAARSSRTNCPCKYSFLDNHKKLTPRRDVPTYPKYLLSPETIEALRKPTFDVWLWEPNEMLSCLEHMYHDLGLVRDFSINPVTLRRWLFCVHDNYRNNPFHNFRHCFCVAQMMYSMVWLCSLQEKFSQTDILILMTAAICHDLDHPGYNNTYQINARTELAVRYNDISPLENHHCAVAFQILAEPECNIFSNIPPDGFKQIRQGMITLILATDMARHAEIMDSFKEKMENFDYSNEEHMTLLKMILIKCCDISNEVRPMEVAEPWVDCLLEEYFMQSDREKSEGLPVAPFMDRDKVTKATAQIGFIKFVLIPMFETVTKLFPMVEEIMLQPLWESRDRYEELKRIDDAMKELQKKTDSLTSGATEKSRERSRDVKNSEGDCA
T1 sequence (Q9Y233 whole entry): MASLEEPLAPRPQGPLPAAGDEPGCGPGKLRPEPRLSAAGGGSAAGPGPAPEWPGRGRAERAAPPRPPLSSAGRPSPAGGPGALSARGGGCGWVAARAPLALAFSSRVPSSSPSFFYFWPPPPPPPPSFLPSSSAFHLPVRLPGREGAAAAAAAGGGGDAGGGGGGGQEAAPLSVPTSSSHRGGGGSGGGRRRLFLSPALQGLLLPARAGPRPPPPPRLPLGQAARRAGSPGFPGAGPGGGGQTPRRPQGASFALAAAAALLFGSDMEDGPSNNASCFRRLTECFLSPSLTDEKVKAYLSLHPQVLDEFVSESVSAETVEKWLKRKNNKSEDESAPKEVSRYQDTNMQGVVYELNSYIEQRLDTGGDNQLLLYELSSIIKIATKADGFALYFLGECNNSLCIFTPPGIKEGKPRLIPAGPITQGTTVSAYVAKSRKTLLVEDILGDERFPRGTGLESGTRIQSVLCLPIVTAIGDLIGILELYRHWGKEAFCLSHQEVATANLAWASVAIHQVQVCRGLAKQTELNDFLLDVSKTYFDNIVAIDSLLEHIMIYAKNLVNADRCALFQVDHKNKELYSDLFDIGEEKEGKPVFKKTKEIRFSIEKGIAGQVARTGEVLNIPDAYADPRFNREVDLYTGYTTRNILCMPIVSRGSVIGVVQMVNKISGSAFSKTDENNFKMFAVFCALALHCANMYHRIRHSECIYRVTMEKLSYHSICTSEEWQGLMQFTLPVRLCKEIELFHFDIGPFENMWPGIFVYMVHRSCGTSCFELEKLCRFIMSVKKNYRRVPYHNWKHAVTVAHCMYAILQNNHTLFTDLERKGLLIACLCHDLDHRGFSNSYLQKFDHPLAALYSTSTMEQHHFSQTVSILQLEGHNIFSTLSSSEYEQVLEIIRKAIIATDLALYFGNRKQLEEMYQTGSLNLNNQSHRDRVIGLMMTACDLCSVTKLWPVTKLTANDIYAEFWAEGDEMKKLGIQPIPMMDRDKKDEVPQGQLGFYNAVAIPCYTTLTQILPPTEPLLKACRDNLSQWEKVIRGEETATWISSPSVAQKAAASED

`CN(C(=O)c1ccc(OCc2ccc3ccccc3n2)cc1)c1ccccc1`: the inhibition in series [1] worked out at 94%. This compound gave an IC50 in [2] of 950 nM.

For the compound `CN(C(=O)c1cc(-c2ccncc2)n[nH]1)c1ccc(OCc2ccc3ccccc3n2)cc1`, the inhibition in series [1] came to 99%. In [2], this compound yielded an IC50 of 110 nM.

Consider `CN(C(=O)c1cnc(-c2cccnc2)s1)c1ccc(OCc2ccc3ccccc3n2)cc1`, for which the inhibition in series [1] came to 103%. This compound also yielded an IC50 in series [2] of 87 nM.

Consider `CN(C(=O)c1ccc(OCc2ccc3ccccc3n2)cc1)c1ccc2ncsc2c1`, for which the inhibition was found to be 105% in series [1]; 15% in series [3]; 12% in [4]; 7% in series [5]; 13% in [6]. The compound further showed an IC50 in [2] of 16 nM. The compound further returned a CLH in the series with Liver microsomes of 6.1 L/min.

As for `CN(C(=O)c1ccccn1)c1ccc(OCc2ccc3ccccc3n2)cc1`, in series [1], the inhibition is 27%.

As to `CN(C(=O)c1ccncc1)c1ccc(OCc2ccc3ccccc3n2)cc1`, in the series listed under Homo sapiens, the Ratio IC50 is above 50. For the same compound, the ED50 in the series filed under Rattus norvegicus worked out at 60 mg/kg. In addition, the inhibition in series [1] was found to be 80%; in [3], 14%; in series [4], 16%; in series [5], 22%; in series [6] it was 4%. Besides, in series [7], the Kp is 0.6. Also, the figures for the IC50 in series [2] and in [8] were 250 nM and above 50000 nM, respectively. In addition, the CLH in the series on Liver microsomes came out at 1.1 L/min.

Regarding `CN(C(=O)c1ccc2ncsc2c1)c1ccc(OCc2nc3ccccc3o2)cc1`, in series [1], the inhibition is 98%. The compound further registered an IC50 in [2] of 920 nM.

As to `CN(C(=O)c1ccccc1)c1ccc(OCc2ccc3ccccc3n2)cc1`, in [1], the inhibition was found to be 96%. Further, 660 nM corresponded to half-maximal inhibition in [2] (IC50).

`CCN(C(=O)c1ccncc1)c1ccc(OCc2ccc3ccccc3n2)cc1`: in series [2], half-maximal inhibition (IC50) was put at 750 nM.

Take `Cn1cc(-c2ccncc2)c(-c2ccc(OCc3ccc4ccccc4n3)cc2)n1` [MARDEPODECT]: the ED50 in the series listed under Rattus norvegicus was 1.8 mg/kg. In the series on Liver microsomes, this compound displayed a CLH of 2.2 L/min.

As for `CN(C(=O)c1ccc(-n2ccnc2)cc1)c1ccc(OCc2ccc3ccccc3n2)cc1`, the inhibition in [1] stood at 98%. For the same compound, the IC50 in [2] worked out at 460 nM.

As for `CN(C(=O)c1ccc(OCc2ccc3ccccc3n2)cc1)c1ccc2ncnn2c1`, the inhibition in [1] worked out at 101%. Besides, the IC50 in [2] came out at 240 nM.

As for `Cc1cccc(COc2ccc(N(C)C(=O)c3ccc4ncsc4c3)cc2)n1`, the inhibition in [1] was determined as 90%. The compound also yielded an IC50 in series [2] of 1600 nM.

`CN(C(=O)c1ccc2ncsc2c1)c1ccc(OCc2ccc3ccccc3n2)cc1`: the inhibition in series [1] was determined as 101%; in series [3] it was 1%; in [5] it was 5%. In series [2], this compound came in with an IC50 of 31 nM. In the series with Liver microsomes, the CLH worked out at 2.2 L/min.

In the case of `CN(C(=O)c1ccc2ncsc2c1)c1ccc(OCc2nc3ccccc3n2C)cc1`, the inhibition in series [1] is 104%. This compound had an IC50 in series [2] of 61 nM.

Take `CN(C(=O)c1cc(-c2ccccn2)n[nH]1)c1ccc(OCc2ccc3ccccc3n2)cc1`: the inhibition came out at 100% in series [1]; 12% in series [3]; 0% in series [4]; 0% in series [5]; 0% in [6]. Also, in series [2], the IC50 was 12 nM. Moreover, the CLH in the series with Liver microsomes is listed as 2.4 L/min.

Regarding `CN(C(=O)c1cccnc1)c1ccc(OCc2ccc3ccccc3n2)cc1`, in series [1], the inhibition turned out to be 62%.

Consider `CN(C(=O)c1ccncc1)c1ccc(OCc2cn3ccccc3n2)cc1`, for which, in series [1], the inhibition was found to be 88%. Besides, the IC50 in [2] was 1600 nM.

For `CN(C(=O)c1cc(-c2ccccc2)n[nH]1)c1ccc(OCc2ccc3ccccc3n2)cc1`, the inhibition in series [1] is 102%. In series [2], this compound returned an IC50 of 24 nM.

Turning to `CN(C(=O)c1cnc(-c2ccncc2)s1)c1ccc(OCc2ccc3ccccc3n2)cc1`, the inhibition in [1] worked out at 101%. Besides, the IC50 in [2] was 88 nM.

As for `CN(C(=O)c1ccc(OCc2ccc3ccccc3n2)cc1)c1ccn2ncnc2c1`, the inhibition in [1] is 100%. In [2], this compound displayed an IC50 of 400 nM.

Take `CN(C(=O)c1cc(-c2cccnc2)n[nH]1)c1ccc(OCc2ccc3ccccc3n2)cc1`: the inhibition in [1] is 101%. The IC50 in series [2] worked out at 13 nM.

Take `CN(C(=O)c1ccc(OCc2ccc3ccccc3n2)cc1)c1ccc2ncoc2c1`: in [1], the inhibition is 105%. This compound registered an IC50 in series [2] of 93 nM.

Turning to `CN(C(=O)c1ccc(OCc2ccc3ccccc3n2)cc1)c1ccc2nccn2c1`, in series [1], the inhibition was found to be 105%. In addition, in series [2], the half-inhibitory concentration (IC50) came out at 130 nM.

Regarding `CCCCN(C(=O)c1ccncc1)c1ccc(OCc2ccc3ccccc3n2)cc1`, the IC50 in series [2] worked out at 660 nM. This lies in the sub-micromolar range.

For the compound `CN(C(=O)c1ccc(OCc2ccc3ccccc3n2)cc1)c1ccncc1`, the inhibition in series [1] came out at 101%. In series [2], this compound registered an IC50 of 140 nM.

`O=C(Nc1ccc(OCc2ccc3ccccc3n2)cc1)c1ccncc1`: in series [1], the inhibition was found to be 33%.

In general, inhibition refers to the change of the read-out against control, counted positive when it falls. A word on the IC50: it is the concentration needed to halve the response being measured. By ED50 is commonly meant the dose at which the effect has come halfway, by size or by number of responders.
